# According to patent publication US20240245789A1, “POLYMER CONJUGATES OF DRUGS TARGETING 5-HT AND OTHER RECEPTORS IN THE CENTRAL NERVOUS SYSTEM (CNS) THAT ALSO TARGETS RECEPTORS OUTSIDE OF THE CNS” (Arbormentis LLC, priority 2021, published 2024):
# How the values were obtained:
# TNF-α = test: mRNA expression of TNF-α in HepG2 cells (in vitro NAFLD model); settings: PA:OA mix
# CCL-2 = test: mRNA expression of CCL2 in HepG2 cells (in vitro NAFLD model); settings: PA:OA mix
# NMDAR1 receptor = test: protein expression of NMDAR1 in the liver of NAFLD mice
# [1] = test system: mice fed with standard diet; settings: 0.05 mg/kg daily
Structure (SMILES),mRNA expression of TNF-α (TNF-α),mRNA expression of CCL-2 (CCL-2),expression of the NMDAR1 receptor in the liver (NMDAR1 receptor),signs of hepatic damage (hepatotoxicity) [1]
CN(C)CCc1c[nH]c2cccc(O)c12 [psilocin],reduction in the mRNA expression,reduction in the mRNA expression,counteracting its overexpression induced by steatosis,–
CN(C)CCc1c[nH]c2cccc(OP(=O)(O)O)c12 [psilocybin],–,–,–,no signs of hepatic damage were observed
